Experimental data published in paper PMC6934700, “Structure-Guided Design of a Fluorescent Probe for the Visualization of FtsZ in Clinically Important Gram-Positive and Gram-Negative Bacterial Pathogens” (Scientific Reports, 2019).
Converted amounts (≈) assume the structure as drawn. Where two headings read alike, the source gives them in different places.

Assays:
E. faecium (EfmFtsZ) = target: T1, E. faecium (EfmFtsZ) (Enterococcus faecium, UniProt Q3Y2I1); experiment: Fluorescence anisotropy binding of BOFP to EfmFtsZ; details: for Kd: 50 mM Tris-HCl (pH 7.6), 50 mM KCl, 0.1 µM BOFP
T1 sequence (Q3Y2I1 1-413): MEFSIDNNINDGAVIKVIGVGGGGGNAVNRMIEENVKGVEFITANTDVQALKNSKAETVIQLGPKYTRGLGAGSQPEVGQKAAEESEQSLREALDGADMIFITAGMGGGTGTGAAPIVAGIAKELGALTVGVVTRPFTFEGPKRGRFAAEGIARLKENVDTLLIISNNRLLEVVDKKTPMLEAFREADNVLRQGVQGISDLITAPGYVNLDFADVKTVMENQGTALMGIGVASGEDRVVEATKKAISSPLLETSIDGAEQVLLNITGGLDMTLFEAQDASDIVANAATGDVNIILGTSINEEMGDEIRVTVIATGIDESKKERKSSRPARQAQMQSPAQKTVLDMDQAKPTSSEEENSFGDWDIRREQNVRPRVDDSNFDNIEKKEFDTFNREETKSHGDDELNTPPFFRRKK
Experimental: (§1) Fluorescence anisotropy experiments were performed using an AVIV model ATF105 spectrofluorometer at 15, 25, or 37 °C. In these experiments, bandwidths were set to 4 nm in both the excitation and emission directions, with the excitation and emission wavelengths being set at 488 nm and 510 nm, respectively. BOFP (0.1 µM) was titrated with increasing concentrations (ranging from 0 to 12 µM) of FtsZ in 120 µL of buffer containing 50 mM Tris-HCl (pH 7.6) and 50 mM KCl. After each protein addition, the samples were equilibrated for 3 minutes, whereupon the fluorescence anisotropy was measured.
(§2) In this equation, r0 is the anisotropy of the protein-free compound, r∞ is the anisotropy of the compound in the presence of an infinite concentration of FtsZ, [C]tot is the total concentration of the compound, and [P]tot is the total concentration of protein with each addition. These analyses yielded the equilibrium dissociation constant (Kd) for each binding reaction.
(§3) The binding free energy (ΔG) at temperature T was derived from the corresponding Kd value determined at T using the following relationship:2 ΔG=−RTln(1/Kd)
(§4) The binding enthalpy (ΔH) and entropy (ΔS) were derived from linear fits of the ln(1/Kd) vs. 1/T plots shown in Figs. 3f and 5e using the following relationship:3 ln(1/Kd)=−ΔH/R(1/T)+ΔS/R

[1] = tested on: FtsZ in S. agalactiae ATCC 12386 cells; experiment: FtsZ visualization by fluorescence microscopy in live cells; type: cell-based, Streptococcus agalactiae; details: 1 µg/mL for 5 minutes
Experimental: All differential interference contrast (DIC) and fluorescence microscopy experiments were conducted using an Olympus BX50 microscope equipped with an X-cite Exacte 200 W mercury lamp, a 100× Olympus UPLSAPO oil immersion objective (1.40 aperture), as well as both Chroma ET-EGFP (FITC/Cy2) and ET mCherry, Texas Red filters. Images were captured using a QImaging Retiga R3 charge-coupled device (CCD) camera and the Ocular-Version 2.0 software package (QImaging).
For visualizing FtsZ in Gram-positive bacteria using BOFP, the bacterial cells were grown to log-phase in media suitable for each individual pathogen. Specifically, S. aureus NRS705 (MRSA) was grown in tryptic soy broth (TSB), E. faecalis ATCC 29212 and E. faecium ATCC 19434 were grown in lactobacilli MRS broth, S. agalactiae ATCC 12386 and S. pneumoniae ATCC 49619 were grown in TH broth, and S. pyogenes ATCC 19615 was grown in CAMH broth supplemented with 3% (v/v) LHB. For each Gram-positive bacterial strain, a total of 1 mL of cell culture was centrifuged at 15,000 × g for 1 minute and washed 2–3 times with 1 mL of PBS. After the final wash, the pelleted cells were resuspended in 500 µL of PBS containing 1 µg/mL of BOFP and incubated in the dark for 5 minutes at room temperature. The cells were then centrifuged at 15,000 × g for 1 minute, washed twice with 1 mL of PBS, and subsequently resuspended in 200 µL of PBS. […]

K. pneumoniae (KpFtsZ) = K. pneumoniae (KpFtsZ) (Klebsiella pneumoniae, UniProt A0A0H3GRR0); experiment: Fluorescence anisotropy binding of BOFP to KpFtsZ; details: for Kd: 50 mM Tris-HCl (pH 7.6), 50 mM KCl, 0.1 µM BOFP
Experimental: as §1, §2, §3, §4
In comparative control experiments, the anisotropy of 0.1 µM BODIPY FL-COOH or BOFP alone or in the presence of SaFtsZ (10 µM), SpyFtsZ (10 µM), KpFtsZ (2 µM), or PaFtsZ (2 µM) was measured at 37 °C in the same buffer described above.

S. aureus NRS705 (MRSA) = experiment: MIC assay by broth microdilution; type: cell-based, Staphylococcus aureus; details: Staphylococcus aureus; MRSA NRS705; TH broth; ≥90% growth inhibition after 18-24 hours
Experimental: MIC assays of 1, 3, and BOFP were conducted by standard broth microdilution in TH media. Briefly, log-phase S. aureus NRS705 (MRSA) cells were added to 96-well microtiter plates (at 5 × 10^5 CFU/mL) containing 2-fold serial dilutions of each test compound in 0.1 mL of TH broth, with each compound concentration being present in duplicate. The MIC is defined as the lowest compound concentration at which growth is ≥90% inhibited after 18-24 hours of aerobic growth.

[2] = from linear fit of ln(1/Kd) vs. 1/T

K. pneumoniae (KpFtsZ), sequence (A0A0H3GRR0 entry or part of it): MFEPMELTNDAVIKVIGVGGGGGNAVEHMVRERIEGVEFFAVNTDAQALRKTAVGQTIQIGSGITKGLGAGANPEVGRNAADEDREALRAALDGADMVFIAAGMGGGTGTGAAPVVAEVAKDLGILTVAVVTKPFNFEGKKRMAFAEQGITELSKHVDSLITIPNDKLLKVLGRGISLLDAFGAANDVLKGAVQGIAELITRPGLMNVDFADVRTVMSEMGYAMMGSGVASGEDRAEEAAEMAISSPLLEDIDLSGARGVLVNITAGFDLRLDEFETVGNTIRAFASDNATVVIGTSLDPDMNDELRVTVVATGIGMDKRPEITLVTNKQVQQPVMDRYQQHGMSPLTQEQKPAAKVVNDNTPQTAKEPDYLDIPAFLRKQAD

Compound: CC1=CC(C)=[N+]2C1=Cc1ccc(CCC(=O)OCC(Oc3ccc(F)c(C(N)=O)c3F)c3nc(-c4ccc(C(F)(F)F)cc4)c(Br)o3)n1[B-]2(F)F (centres unmarked) [BOFP]
- Kd (E. faecium (EfmFtsZ); 15 °C, read-out: Kd - 15 °C): 2500 ± 140 nM
- Kd (E. faecium (EfmFtsZ); 25 °C, read-out: Kd - 25 °C): 2620 ± 80 nM
- Kd (E. faecium (EfmFtsZ); 37 °C, read-out: Kd - 37 °C): 3140 ± 220 nM
- ΔH (E. faecium (EfmFtsZ); [2]): -1.9 ± 0.6 kcal/mol
- Fluorescence staining / FtsZ labeling in live cells [1]: bright bands of fluorescence staining are clearly visible at midcell
- Kd (K. pneumoniae (KpFtsZ); 15 °C, read-out: Kd - 15 °C): 420 ± 50 nM
- Kd (K. pneumoniae (KpFtsZ); 25 °C, read-out: Kd - 25 °C): 580 ± 40 nM
- Kd (K. pneumoniae (KpFtsZ); 37 °C, read-out: Kd - 37 °C): 820 ± 40 nM
- ΔG (K. pneumoniae (KpFtsZ); calculated at T = 310 K (37 °C) from Kd): -8.6 ± 0.1 kcal/mol
- ΔH (K. pneumoniae (KpFtsZ); [2]): -5.4 ± 0.1 kcal/mol
- MIC (S. aureus NRS705 (MRSA)): 1 µg/mL (≈ 1.28 µM)
